The values that follow come from PMC5817390 (The Pharmacogenomics Journal, 2016).

The structures appear in SMILES notation. Like-named read-outs stand apart in the source and are kept apart here. Bounds are passed on as bounds.

The conditions of series [1]: healthy volunteers; cited from earlier work.
For series [2] the following is noted: cited from earlier work.
Series [3] concerns organic anion transporter protein 1B1 (OATP1B1). To be noted: in vitro studies; cited from earlier work.
The conditions of series [4]: on a molar basis; ref data on file; cited from earlier work.
The format of series [5] is in vivo, human (healthy subjects). The conditions noted are these: for AUC(0-inf): AUCinf.
Series [6] concerns P-glycoprotein (P-gp; MDR1). The conditions noted are these: in vitro studies; cited from earlier work.
For series [7] the following is noted: single 60-mg dose, healthy subjects, 14 phase 1 studies; cited from earlier work.
Where [8] appears, read: SLCO1B1 rs4149056 C-carriers vs TT homozygotes, with 90% CI.
The mark [9] stands for this setting: SLCO1B1 rs4149056 C-carriers, single 60-mg edoxaban, mean±s.d.
Setting [10] is: SLCO1B1 rs4149056 TT, M4 to edoxaban, adjusted for molecular weights, mean±s.d.
Where [11] appears, read: SLCO1B1 rs4149056 TT, single 60-mg edoxaban, mean±s.d.
[12] abbreviates: single 60-mg edoxaban, healthy subjects.
Where [13] appears, read: ABCB1 rs1045642 CT, single 60-mg edoxaban, mean±s.d.

The Cmax is the highest concentration seen after dosing. In general, AUC(0-t) refers to exposure summed from dosing to a finite time, without extrapolation to infinity. What is called AUC(0-inf) is total exposure, with the tail of the curve extrapolated. A higher AUC(0-inf) goes with more exposure.

As for `CN1CCc2nc(C(=O)N[C@@H]3C[C@@H](C(=O)O)CC[C@@H]3NC(=O)C(=O)Nc3ccc(Cl)cn3)sc2C1` [M4], the “levels on coadministration of cyclosporine or rifampin” value in series [1] is recorded as “increase”. For the same molecule, in series [2], the “share of the total anticoagulant exposure” value is reported as below 10%. Moreover, the “substrate of OATP1B1” value in series [3] is recorded as “substrate”. Moreover, in series [4], the “anticoagulant activity compared with edoxaban” value is “similar”. Besides, in series [5] (setting [8]), the “geometric LS means ratio, AUCinf” value is given as 126.9 (90% CI, 117.4–137.1); the “geometric LS means ratio, C24” value was 114.9 (90% CI, 104.0–127.0); the “geometric LS means ratio, Cmax” value is reported as 124.1 (90% CI, 111.9–137.5). Also, the C24 in series [5] (SLCO1B1 rs4149056 C-carriers, 24 h postdose, single 60-mg edoxaban, mean±s.d.) turned out to be 1.3 ± 0.74 ng/mL. In series [5] (setting [9]), the “AUC0–24” value stood at 170.0 ± 73.0 ng·h/mL, the AUCinf was 191.9 ± 76.4 ng·h/mL, the AUClast was 184.6 ± 75.6 ng·h/mL and the Cmax amounted to 26.7 ± 13.6 ng/mL. In series [5] (SLCO1B1 rs4149056 TT, 24 h postdose, single 60-mg edoxaban, mean±s.d.), this molecule had a C24 of 1.1 ± 0.57 ng/mL. Further, in series [5] (setting [10]), the “MPR AUCinf (metabolite to parent ratio)” value was 8.7±2.9, the “MPR AUClast (metabolite to parent ratio)” value was 8.7±2.9 and the “MPR Cmax (metabolite to parent ratio)” value is 8.8±3.1. In series [5] (setting [11]), the “AUC0–24” value is 134.7 ± 57.2 ng·h/mL, the AUCinf amounted to 150.2 ± 61.4 ng·h/mL, the AUClast came out at 147.1 ± 60.7 ng·h/mL and the Cmax came out at 21.2 ± 10.7 ng/mL. Further, the “plasma M4 concentration as share of edoxaban levels” value in series [5] (plasma, healthy subjects) is below 10%. Moreover, the “effect of SLCO1B1 T521C SNP on exposure” value in series [5] (setting [12]) is on record as “elevated among C-carriers”.

Take `CN1CCc2nc(C(=O)N[C@@H]3C[C@@H](C(=O)N(C)C)CC[C@@H]3NC(=O)C(=O)Nc3ccc(Cl)cn3)sc2C1` [Edoxaban, edoxaban]: in series [2], the “absorbed dose renally eliminated” value is ~ 50%. For the same molecule, the “absorbed drug eliminated unmodified” value in series [2] was around 73%. Besides, the “AUC0–24” value in series [5] (setting [13]) came out at 1671 ± 420.3 ng·h/mL; in series [5] (setting [9]), 1643.8 ± 392.9 ng·h/mL; in series [5] (setting [11]) it was 1644.1 ± 440.6 ng·h/mL. Further, the AUCinf in series [5] (setting [13]) turned out to be 1845 ± 417.8 ng·h/mL; in series [5] (setting [9]), 1815.5 ± 382.4 ng·h/mL; in series [5] (setting [11]), 1823.5 ± 444.9 ng·h/mL. In addition, the AUC(0-t) in series [5] (both, human, in vivo, 60 mg, AUC0–24, ABCB1 rs1045642 CC, single 60-mg edoxaban, mean±s.d.) was 1610 ± 441 ng·h/mL; in series [5] (both, human, in vivo, 60 mg, AUC0–24, ABCB1 rs1045642 TT, single 60-mg edoxaban, mean±s.d.) it was 1680 ± 442 ng·h/mL; in series [5] (both, human, in vivo, 60 mg, AUClast, ABCB1 rs1045642 CC, single 60-mg edoxaban, fasting, plasma, mean±s.d.), 1760 ± 447 ng·h/mL; in series [5] (both, human, in vivo, 60 mg, AUClast, ABCB1 rs1045642 CT, single 60-mg edoxaban, fasting, plasma, mean±s.d.), 1810 ± 417 ng·h/mL; in series [5] (both, human, in vivo, 60 mg, AUClast, ABCB1 rs1045642 TT, single 60-mg edoxaban, fasting, plasma, mean±s.d.) it was 1820 ± 435 ng·h/mL; in series [5] (both, human, in vivo, 60 mg, AUClast, SLCO1B1 rs4149056 C-carriers, single 60-mg edoxaban, mean±s.d.), 1780 ± 381 ng·h/mL. In series [5] (both, human, in vivo, 60 mg, AUClast, SLCO1B1 rs4149056 TT, single 60-mg edoxaban, mean±s.d.), this molecule gave an AUC(0-t) of 1790 ± 443 ng·h/mL. Besides, the AUC(0-inf) in series [5] (both, human, in vivo, 60 mg, ABCB1 rs1045642 CC, single 60-mg edoxaban, mean±s.d.) worked out at 1790 ± 450 ng·h/mL; in series [5] (both, human, in vivo, 60 mg, ABCB1 rs1045642 TT, single 60-mg edoxaban, mean±s.d.), 1860 ± 436 ng·h/mL. The concentration at 24 h in series [5] (both, human, in vivo, 60 mg, C24, ABCB1 rs1045642 CC, plasma concentration at 24 h postdose, single 60-mg edoxaban, mean±s.d.) turned out to be 12.5 ± 5.11 ng/mL; in series [5] (both, human, in vivo, 60 mg, C24, ABCB1 rs1045642 TT, plasma concentration at 24 h postdose, single 60-mg edoxaban, mean±s.d.) it was 12.3 ± 6.46 ng/mL; in series [5] (both, human, in vivo, 60 mg, C24, SLCO1B1 rs4149056 C-carriers, 24 h postdose, single 60-mg edoxaban, mean±s.d.), 11.6 ± 4.8 ng/mL; in series [5] (both, human, in vivo, 60 mg, C24, SLCO1B1 rs4149056 TT, 24 h postdose, single 60-mg edoxaban, mean±s.d.), 12.3 ± 5.4 ng/mL. The peak level in series [5] (both, human, in vivo, 60 mg, Cmax, ABCB1 rs1045642 TT, single 60-mg edoxaban, mean±s.d.) (Cmax) was 261 ± 101 ng/mL. Besides, the “effect of ABCB1 C3435T SNP on exposure” value in series [5] (setting [12]) is reported as “does not significantly affect”. Besides, in series [5] (setting [12]), the “effect of SLCO1B1 T521C SNP on exposure” value is given as “does not influence”. Further, the “substrate of P-glycoprotein” value in series [6] is given as “substrate”. Also, in series [7], the tolerability entry was “generally well tolerated”.
